Source: PubChem BioAssay (NCI)
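Results reflect a 48-hour exposure of cells in 96-well plates to compound at five concentrations. TGI: concentration producing complete growth inhibition.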

Columns and labels:
Experiment in all cases: DTP human tumour cell line panel, 48 h
[1] = tested on: BT-549 breast
[2] = tested on: DLD-1 colon
[3] = tested on: DMS 114 small cell lung
[4] = tested on: HOP-18 NSCLC
[5] = tested on: KM20L2 colon
[6] = tested on: LXFL 529 NSCLC
[7] = tested on: M19-MEL melanoma
[8] = tested on: RXF-631 renal
[9] = tested on: SNB-78 CNS
[10] = tested on: XF 498 CNS

Row | Compound | TGI [1] [µM] | TGI [2] [µM] | TGI [3] [µM] | TGI [4] [µM] | TGI [5] [µM] | TGI [6] [µM] | TGI [7] [µM] | TGI [8] [µM] | TGI [9] [µM] | TGI [10] [µM]
1 | O=C(CCc1cccc(O)c1)NCCc1cccc(OCc2ccccc2)c1 | 32.5 |  |  |  |  |  |  |  |  | 
2 | O=[N+]([O-])c1ccc(N2N=C(c3ccc4ccccc4c3O)CC2c2ccc(Cl)cc2Cl)c([N+](=O)[O-])c1 (stereo unspecified) | > 100 |  |  |  |  |  |  |  |  | 
3 | CCOC(=O)c1c(C(F)(F)F)oc2c1ccc1nc3nonc3nc12 |  | 28.6 | 55.9 | 26 | 36.5 | 27.2 | 38.2 | 37.6 | 23.2 | 30.8
4 | Nc1cnc2c(c1)c(=O)nc1n2CCS1 | > 100 |  |  |  |  |  |  |  |  | 
5 | CCCCOc1ccc(S(=O)(=O)/N=C(\NN)Nc2ccc(Cl)cc2)cc1 | > 100 |  |  |  |  |  |  |  |  | 
6 | CC(OCc1ccccc1)C(NC(=O)C1CSSCC(NC(=O)C(Cc2ccccc2)NC(=O)OCc2ccccc2)C(=O)NC(Cc2ccccc2)C(=O)NC(Cc2cn(C=O)c3ccccc23)C(=O)NC(CCCCNC(=O)OCc2ccccc2)C(=O)NC(C(C)OCc2ccccc2)C(=O)N1)C(N)=O (stereo unspecified) | > 66.5 |  |  |  |  |  |  |  |  | 
7 | CCCOCN1COCN=C1NC#N |  | > 100 | 39.7 | > 100 | > 100 | > 100 | 88.1 |  | > 100 | > 100
8 | O=C1CSC(/C=C/c2ccccc2)N1c1ccc(-n2c(-c3ccccc3)nc3ccccc3c2=O)cc1 (stereo unspecified) | > 100 |  |  |  |  |  |  |  |  | 
9 | COc1ccc(-n2c(=O)n(C)c(=O)n2-c2c(C)c(C)c(C)c(C)c2C)cc1 | > 100 |  |  |  |  |  |  |  |  | 
10 | O=C(O)c1cc(N(Cc2ccccc2O)Cc2cc(O)ccc2O)ccc1O | > 100 |  |  |  |  |  |  |  |  | 
11 | CO[C@@]12CC(=O)/C(=C(O)\C=C\c3ccccc3)C(=O)[C@]1(OC)Cc1ccccc1O2 |  | > 100 | > 100 | > 100 | 49.2 | > 100 | > 100 | > 100 | > 100 | > 100
12 | COC1=CC(=O)c2ccccc2C1(C)C1=NC(C)(C)CO1 (stereo unspecified) |  | > 100 | > 100 | > 100 | > 100 | > 100 | > 100 | > 100 |  | > 100
13 | O=c1c2ncn(CCCl)c2n(-c2ccccc2)c(=S)n1-c1ccccc1 | > 100 |  |  |  |  |  |  |  |  | 
14 | COc1cccc(/C=C2\C(=O)N(C(=O)Cc3ccccc3)N=C2C)c1 |  | > 100 | > 100 | > 100 |  |  | > 100 |  | > 100 | > 100
15 | COc1ccc(Nc2nc3ccccc3nc2C(=O)O)cc1 | > 100 |  |  |  |  |  |  |  |  | 
16 | CC1(C)O[C@@H](CP(c2ccccc2)c2ccccc2)[C@H](CP(c2ccccc2)c2ccccc2)O1 | 9.02 |  |  |  |  |  |  |  |  | 
17 | CNC(=O)OCCN1c2ccccc2Sc2ccccc21 | > 100 |  |  |  |  |  |  |  |  | 
18 | NC(N)=NS(=O)(=O)c1ccc(NNc2c3ccccc3nc3c(C(=O)Nc4ccc(S(N)(=O)=O)cc4)cccc23)cc1 | 70.2 |  |  |  |  |  |  |  |  | 

Row | Compound | TGI [1] [µM] | TGI [2] [µM] | TGI [3] [µM] | TGI [4] [µM] | TGI [5] [µM] | TGI [6] [µM] | TGI [7] [µM] | TGI [8] [µM] | TGI [9] [µM] | TGI [10] [µM]
19 | COCC12CC(CC1=O)C1C2ON2c3ccccc3C(=O)C12c1ccccc1 (stereo unspecified) |  | > 100 | > 100 | > 100 | > 100 | > 100 |  |  | > 100 | > 100
20 | CCOC(=O)CCC(NC(=O)c1ccc(Oc2nc3ccccc3nc2C(=O)OCC)cc1)C(=O)OCC (stereo unspecified) | > 100 |  |  |  |  |  |  |  |  | 
21 | C1=c2ccccc2=C2C(=C(c3ccccc3)C(c3ccccc3)=NN2c2ccccc2)S1 |  | > 100 | > 100 | > 100 | > 100 | > 100 | > 100 |  | > 100 | 
22 | O=C1C2Nc3ccccc3SC2C(=O)N1c1cccc([N+](=O)[O-])c1 (stereo unspecified) |  | > 100 | > 100 |  | > 100 | > 100 | > 100 | > 100 | > 100 | > 100
23 | COC(=O)C(=O)C1CCCCC(C2=NC3NN=C(N)N3C2=O)C1=O (stereo unspecified) |  | > 100 | > 100 | > 100 | > 100 | > 100 | > 100 | > 100 |  | > 100
24 | O=C(N/C(=C/c1ccc(Cl)cc1)c1nc2ccccc2c(=O)n1Nc1ccc([N+](=O)[O-])cc1[N+](=O)[O-])c1ccccc1 | > 100 |  |  |  |  |  |  |  |  | 
25 | N#CC(c1ccccc1)(c1ccccc1)[C@@H](c1ccccc1)[C@H](Cc1ccccc1)NS(=O)(=O)c1ccccc1 | > 100 |  |  |  |  |  |  |  |  | 
26 | CC(C)(C)c1cc(C(C)(C)C)c2sc(=S)oc2c1O | 23.6 |  |  |  |  |  |  |  |  | 
27 | COc1cc(C2C(Cl)C(=O)N2NC(=O)Cc2ccccc2)ccc1O (stereo unspecified) |  | > 100 | > 100 | > 100 | > 100 | > 100 | > 100 |  | > 100 | > 100
28 | COc1ccc(/C(Cl)=C/c2ccc(Cl)c(Cl)c2)cc1 |  | > 100 | 43.8 | 88.9 | 63.7 | > 100 | > 100 |  | 72.1 | 44.3
29 | COc1ccc2c(c1)CC[C@@H]1[C@@H]2CC[C@]2(C)[C@@H](O)/C(=C/c3ccncc3)C[C@@H]12 | 31.6 |  |  |  |  |  |  |  |  | 
30 | CC1OC(OC2C(O[C@@H]3C[C@@H]4CC[C@@H]5[C@H](CC[C@]6(C)[C@@H]7[C@H](C[C@@H]56)O[C@]5(CC[C@@H](C)CO5)[C@H]7C)[C@@]4(C)C[C@H]3O)OC(CO)C(OC3OC(CO)C(O)C(O)C3O)C2O)C(O)C(O)C1O (stereo partly specified) | 4.44 |  |  |  |  |  |  |  |  | 
31 | COc1ccccc1OC(=O)/C=C/c1ccccc1 | > 100 |  |  |  |  |  |  |  |  | 
32 | CCOC(=O)CCc1c(C)[nH]c2c(C)c3c([nH]c4ccc(Cl)cc43)c(C)c2c1=O | 40.3 |  |  |  |  |  |  |  |  | 
33 | O=C(/C=C/c1ccc(Cl)c(Cl)c1)C1CCC(Cl)CC1 (stereo unspecified) |  | 29.8 | 30.7 | 58.1 | 46.7 | 32.3 | 31.7 | 33.8 | 42.3 | 33
34 | O=C1C=C(Nc2ccccc2C(=O)CC(=O)C(=O)Nc2ccc(Cl)c(Cl)c2)c2ccccc2C1=O |  | > 100 | 66.7 |  |  |  | 8.96 |  | > 100 | 
35 | NCCc1ccc2c(c1)C(=O)c1c(O)ccc(O)c1C2=O | > 100 |  |  |  |  |  |  |  |  | 
36 | Cn1c(N)c(-c2c3ccccc3nc3ccccc23)c(=O)n(C)c1=O |  |  | > 100 | > 100 | > 100 | > 100 | > 100 |  |  | 
